Patent US20220184162A1, “PREPARATIONS CONTAINING BERRY EXTRACTS FOR USE IN TREATING CANCER” (Evonik Operations GmbH, priority 2019, published 2022)

Key:
[1] = test system: isolated PBMCs (non-activated); assay: Activating effect on isolated non-activated PBMCs (CellTrace CFSE proliferation, flow cytometry); format: cell-based, human; details: for Median Fluorescence Day 7 Average / Median Fluorescence Day 2 Average: CellTrace CFSE; for Median Fluorescence Day 2 Average: no activation stimulus
Excerpt: (§1) Upon recognition of a foreign substance (foreign peptide presented on MHC) by the T cell receptor (TCR) and stimulation of the co-receptor CD28 the T cells start to proliferate. Thus, proliferation is a clear indication of T cell activation. Another classic activation marker for T cells is CD25, the high affinity receptor for the interleukin IL-2. This protein is not expressed by resting T cells and transcription is induced by TCR signaling. Thus, the presence of CD25 on the surface of T cells is a clear indicator of T cell activation. On the contrary, T cell exhaustion correlates with the signaling-induced expression of PD-1 on the surface of the T cells. To test the impact of substances on T cell activation, proliferation as well as CD25 and PD-1 upregulation, are used as readouts. Primary human Peripheral blood mononuclear cells (PBMCs) isolated from the blood of healthy donors (including primary T-cells) were used. PBMC cells represent a heterogenic population with 45-80% T cells, 5-20% B cells, 10-25% monocytes and 5-20% NK cells.
(§2) CellTrace™ stock solution was prepared according to the manual; addition of 15 μL DMSO to the CellTrace™ reagent and mixed well. Cell suspension was adjusted to 10^6 cells/mL in RPMI without FBS before addition of 1 μL CellTrace™ stock solution to each mL of cell suspension. After 20 minutes incubation (protected from light) of the cells at room temperature, five times the volume of culture medium was added and then again incubated for 5 min at room temperature. Afterwards the cells were centrifuged (300×g for 5 min) and the pellet resuspended in fresh culture medium. As last step the cells were incubated at 37° C. with 5% CO2 for 1-2 hours before the set-up of the experiment.
(§3) Following CFSE labelling and recovering at 37° C. with 5% CO2, cells were mixed with the extract as follows: 20 μL of extract were placed in a 96-well u-bottom culture plate as triplicates, then 180 μL cell suspension was added on top and mixed. Final concentration of the cells was 5*10^4 cells/well (=2.5*10^5 cells/mL).
(§4) Sample format: 96 well with 200 μL/well and 10,000 events measured per sample. FACS (fluorescence activated cell sorting) gating was performed via SSC (sideward scatter) versus FSC (forward scatter) density blot. A gate has been applied to identify viable cells. Percentage of viable cells was determined for all samples of a 96-well plate.
(§5) CellTrace™ CFSE median fluorescence (488 nm excitation and a 530/30 nm bandpass emission filter): From viable cell population single cells were determined and viable, single cells within the gate defined in a histogram to evaluate the level of fluorescence intensity of cells labelled with CellTrace™ CFSE. Cell proliferation was followed for 7 days. With increasing level of proliferation median fluorescence decreases, shown as shift of peak from right to left within the flow cytometer; non-labeled cells shown on the far-left side. Median fluorescence was determined as read-out. Earliest observable influence on proliferation and activation was expected after 3 days of incubation with the test compounds.
All cells (40*10^6) of one vial of frozen PBMC's (non-activated) were used for CFSE staining and cultured with extracts as follows: Day 0-3 in RPMI 1640 with 10% FBS, 1% HEPS (10 mM); day 3-7 in RPMI 1640 with 10% FBS, 1% HEPS (10 mM) and 100 U/mL IL-2.
(§6) Water, DMSO or DMF were used as negative control; UCHT1 (anti-CD3) antibody as positive control. The samples plate set-up was used as follows:
(§7) Half medium change with fresh extracts of final concentration was done every day.
To evaluate, if the chosen test compounds could have an activating effect on isolated PBMCs (Peripheral Blood Mononuclear Cells) and induce them to proliferate, PBMCs were incubated together with the test compounds in different concentrations. […]

activated PBMCs = assay: Influence on proliferation of activated PBMCs (anti-CD3/anti-CD28, IL-2; CellTrace CFSE); format: cell-based, human; details: for Median Fluorescence Day 2 Average / Median Fluorescence Day 3 Average: CellTrace CFSE, activated PBMCs, 100 U/ml IL-2; for proliferation of activated PBMCs on day 3 (in words): versus water, maltodextrin or solvent control
Excerpt: as §1, §2, §3, §4, §5
PBMCs isolated from blood were activated for 2 days on an activating surface with anti-CD3 (UCHT1) and anti-CD28. Activated PBMCs were then induced to proliferate by adding 1000 U/ml IL-2. Therefore, the cells were transferred to a new dish without activating antibodies and 2 days later the activated cells were used to set up the experiment. 40*10^6 cells were used for CFSE staining and cultured with extracts in RPMI 1640 with 10% FBS, 1% HEPS (10 mM), 0.1% β-mecaptoethanol (50 μM), 0.5% Pen/Strep and 100 U/ml IL-2.
as §6, §7
In the next experiment the effect of the test compounds on the proliferation of activated PBMCs was evaluated. […]

[2] = test system: Jurkat cells (T cell leukemia); assay: Cell viability (Cell Titer Glo, ATP luminescence); format: cell-based; details: increasing concentrations; FIG. 8A, FIG. 9
Procedure: Similar cell viability assays were performed with additional cell lines (HeLa, Jurkat, Mt4 and THP-1) and using the Cell Titer Glo Assay. In order to further evaluate the effect of Healthberry® 865 on T cell populations and specifically the CD4+ populations, additional cell viability analysis was performed. On the basis that Healthberry® 865 has an influence on the CD4+ cell populations and additionally on the activation status of T cells, specifically T cell leukemia/lymphoma cell lines as Jurkat (T cell leukemia) and Mt4 (HTLV-I positive; human T-cell lymphotropic virus type I retrovirus causes adult T-cell leukemia-lymphoma) cells were chosen as in vitro models. Furthermore, control cell lines were chosen, which are not CD4^+ such as HeLa cells (epithelial cervix carcinoma) or which represent another type of leukemia such as THP-1 (acute monocytic leukemia). […] Cell viability tests were performed with the T cell leukemia cell lines Jurkat (FIG. 8A) and Mt4 (FIG. 8B) as well as with control cell lines such as the CD4 negative cervix carcinoma cell line HeLa (FIG. 8C) and the monocytic leukemia cell line THP 1 (FIG. 8D). Cell viability was evaluated based on ATP amount and via luminescence measurement. Samples were tested in triplicates.

[3] = test system: CD8+ T cells in activated PBMCs; assay: Analysis of T cell populations via flow cytometry, CD8+; format: cell-based, human; details: FIG. 6
Procedure: (§8) Sample preparation and plate set-up was used as described before in the T cell activation assay. Primary PBMCs were seeded on activating surface (anti-CD3, anti-CD28) with medium containing 1000 U/ml IL-2 for 2 days. The activated PBMCs were then cultured with the prepared sample concentrations in medium containing 100 U/ml IL-2 every day from day 3 on after isolation. Half medium change with fresh samples and flow cytometry measurement was performed every day. All cells for flow cytometry were labelled with an antibody mixture containing Annexin V_Alexa594, anti-CD4_APC and anti-CD8_PE for CD-marker as well as live-dead staining.
(§9) PBMS were activated by using an activating surface and the addition of Interleukin-2 to the cell culture media. The activated PBMCs, which contain T-cells as the most prominent cell type, were treated with the berry extracts or the anthocyanins from day 3 on after isolation. To evaluate the different T cell population flow cytometry analysis were performed with anti-CD4 and anti-CD8 antibodies in combination with Annexin V staining as live-dead-staining.

[4] = test system: CD4+ T cells in activated PBMCs; assay: Analysis of T cell populations via flow cytometry, CD4+; format: cell-based, human; details: FIG. 7
Procedure: as §8, §9

SMILES	proliferation of activated PBMCs on day 3 (in words) (activated PBMCs)	Median Fluorescence Day 7 Average ([1]; 15 μg/mL, IL-2 from day 3)	Median Fluorescence Day 2 Average ([1]; 15 μg/mL)	Median Fluorescence Day 7 Average ([1]; 30 μg/mL, IL-2 from day 3)	Median Fluorescence Day 2 Average ([1]; 30 μg/mL)	Median Fluorescence Day 7 Average ([1]; 75 μg/mL, IL-2 from day 3)	Median Fluorescence Day 2 Average ([1]; 75 μg/mL)	Median Fluorescence Day 2 Average (activated PBMCs; 15 μg/mL)	Median Fluorescence Day 3 Average (activated PBMCs; 15 μg/mL)	Median Fluorescence Day 2 Average (activated PBMCs; 30 μg/mL)	Median Fluorescence Day 3 Average (activated PBMCs; 30 μg/mL)	Median Fluorescence Day 2 Average (activated PBMCs; 75 μg/mL)	Median Fluorescence Day 3 Average (activated PBMCs; 75 μg/mL)	also measured
CC1=C(/C=C/C(C)=C/C=C/C(C)=C/C=C/C=C(C)/C=C/C=C(C)/C=C/C2=C(C)C(=O)[C@@H](O)CC2(C)C)C(C)(C)C[C@H](O)C1=O [Astaxanthin, reference compound]	slower proliferation													Median Fluorescence Day 7 Average ([1]; 2 μg/mL, IL-2 from day 3): 20201; Median Fluorescence Day 2 Average ([1]; 2 μg/mL): 33336; Median Fluorescence Day 7 Average ([1]; 4 μg/mL, IL-2 from day 3): 19444; Median Fluorescence Day 2 Average ([1]; 4 μg/mL): 32336; Median Fluorescence Day 7 Average ([1]; 10 μg/mL, IL-2 from day 3): 16442; Median Fluorescence Day 2 Average ([1]; 10 μg/mL): 36178; Median Fluorescence Day 2 Average (activated PBMCs; 2 μg/mL): 14190; Median Fluorescence Day 3 Average (activated PBMCs; 2 μg/mL): 6502; Median Fluorescence Day 2 Average (activated PBMCs; 4 μg/mL): 15365; Median Fluorescence Day 3 Average (activated PBMCs; 4 μg/mL): 10055; Median Fluorescence Day 2 Average (activated PBMCs; 10 μg/mL): 19750; Median Fluorescence Day 3 Average (activated PBMCs; 10 μg/mL): 15342
C[C@@H]1O[C@@H](OC[C@H]2O[C@@H](Oc3cc4c(O)cc(O)cc4[o+]c3-c3ccc(O)c(O)c3)[C@H](O)[C@@H](O)[C@@H]2O)[C@H](O)[C@H](O)[C@H]1O [C3R, cyanidin 3-rutinoside]	dose-dependent and significant decrease of proliferation	21030	33603	21539	33737	22855	34486	14630	6153	15317	7228	17032	11086	
OC[C@H]1O[C@@H](Oc2cc3c(O)cc(O)cc3[o+]c2-c2cc(O)c(O)c(O)c2)[C@H](O)[C@@H](O)[C@@H]1O [D3G, Delphinidin 3-glucoside]														cell viability (ATP amount, luminescence) [2]: specific reduction
C[C@@H]1O[C@@H](OC[C@H]2O[C@@H](Oc3cc4c(O)cc(O)cc4[o+]c3-c3cc(O)c(O)c(O)c3)[C@H](O)[C@@H](O)[C@@H]2O)[C@H](O)[C@H](O)[C@H]1O [D3R, delphinidin 3-rutinoside]	dose-dependent and significant decrease of proliferation	20821	34772	25171	34646	44248	37453	14407	6602	15685	8150	19716	13927	activation / proliferation of non-activated PBMCs (in words) ([1]; 2 days up to 7 days incubation, IL-2 from day 3): slight decrease of proliferation; change of CD8+ T cells in comparison to controls [3]: most significant effects; change of CD4+ T cells in comparison to controls [4]: most significant effects
